Target: T1, human PI 3-Kγ (Homo sapiens, UniProt P48736)
T1 construct: Residues 38-1102 of human PI 3-Kγ are subcloned; made in house; host or cells: Sf9 (Spodoptera frugiperda) insect cells, baculovirus
Test: in vitro kinase assay (Scintillation Proximity Assay): transfer of terminal phosphate of ATP to phosphatidylinositol
Assay type: biochemical
Settings: recombinant GST-p110γ, 12.5 μM ATP assay mix, 60 minutes room temperature
Description: Baculovirus expressing different fragments of human PI 3-Kγ fused to glutathione S-transferase (GST) have been previously described by Stoyanova, S., Bulgarelli-Leva, G., Kirsch, C., Hanck, T., Klinger, R., Wetzker, R., Wymann, M. P. (1997) Lipid- and protein kinase activities of G protein-coupled PI 3-kinase g: structure-activity analysis and interactions with wortmannin. Biochem. J., 324:489. Residues 38-1102 of human PI 3-Kγ are subcloned into the BamH1 and EcoR1 sites of the transfer vector pAcG2T (Pharmingen) to create a GST-PI 3-Kγ lacking the first 37 residues of PI 3-Kγ. To express the recombinant protein, Sf9 (Spodoptera frugiperda 9) insect cells are routinely maintained at densities between 3×10^5 and 3×10^6 cells/ml in serum containing TNMFH medium (Sigma). Sf9 cells, at a density of 2×10^6 are infected with human […] baculovirus at a multiplicity of infection (m.o.i.) of 1 for 72 hours. The infected cells are harvested by centrifugation at 1400 g for 4 minutes at 4° C. and the cell pellets are frozen at −80° C. Both Sf9 and Sf21 cells work equally well. Sf9 cells (1×10^9) are resuspended in 100 ml cold (4° C.) lysis buffer (50 mM Tris-HCl pH 7.5, 1% Triton X-100, 150 mM NaCl, 1 mM NaF, 2 mM DTT and protease inhibitors. Cells are incubated on ice for 30 minutes then centrifuged at 15000 g for 20 minutes at 4° C. Purification of the supernatant sample is carried out at 4° C. by affinity chromatography using SEPHAROSE™ agarose gel beads coupled to glutathione (from Amersham Pharmacia Biotech). A cell lysate/GST resin ratio of 50:1 is used. The GST resin is firstly pre-rinsed to remove ethanol preservative and then equilibrated with lysis buffer. Cell lysate (supernatant) is added (usually as 50 ml lysate to 1 ml GST resin in 50 ml tubes) and gently rotated on a mixer at 4° C. for 2-3 hours. The unbound flow through sample is collected by centrifugation at 1000 g for 5 minutes at 4° C. using a DENLEY™ centrifuge. The 1 ml GST resin containing bound material is transferred to a 15 ml FALCON™ centrifuge tube for subsequent washing and elution steps. Firstly a series of 3 cycles of washings (mixing by gentle inversion) is performed with 15 ml ice cold wash Buffer A (50 mM Tris-HCl pH 7.5, 1% Triton X-100, 2 mM DTT) interspersed with centrifugation at 1000 g for 5 minutes at 4° C. A final single wash step is performed with 15 ml ice cold wash Buffer B (50 mM Tris-HCl pH 7.5, 2 mM DTT) and then centrifuged at 1050 g for 5 minutes at 4° C. The washed GST resin is finally eluted with 4 cycles of 1 ml ice cold elution buffer (50 mM Tris-HCl pH 7.5, 10 mM reduced glutathione, 2 mM DTT, 150 mM NaCl, 1 mM NaF, 50% ethylene glycol and protease inhibitors) interspersed with centrifugation at 1000 g for 5 minutes at 4° C. Samples are aliquoted and stored at −20° C.
An in vitro kinase assay was established that measures the transfer of the terminal phosphate of adenosine triphosphate to phosphatidylinositol. The kinase reaction is performed in a white 96 well microtitre plate as a Scintillation Proximity Assay. Each well contains 10 μl test compound in 5% dimethylsulphoxide and 20 μl assay mix (40 mM Tris, 200 mM NaCl, 2 mM ethyleneglycol-aminoethyl-tetraacetic acid (EGTA), 15 μg/ml phosphatidylinositol, 12.5 μM adenosine triphosphate (ATP), 25 mM MgCl2, 0.1 μCi [^33P]ATP). The reaction is started by the addition of 20 μl of enzyme mix (40 mM Tris, 200 mM NaCl, 2 mM EGTA containing recombinant GST-p110γ). […]

T1 sequence (P48736 38-1102): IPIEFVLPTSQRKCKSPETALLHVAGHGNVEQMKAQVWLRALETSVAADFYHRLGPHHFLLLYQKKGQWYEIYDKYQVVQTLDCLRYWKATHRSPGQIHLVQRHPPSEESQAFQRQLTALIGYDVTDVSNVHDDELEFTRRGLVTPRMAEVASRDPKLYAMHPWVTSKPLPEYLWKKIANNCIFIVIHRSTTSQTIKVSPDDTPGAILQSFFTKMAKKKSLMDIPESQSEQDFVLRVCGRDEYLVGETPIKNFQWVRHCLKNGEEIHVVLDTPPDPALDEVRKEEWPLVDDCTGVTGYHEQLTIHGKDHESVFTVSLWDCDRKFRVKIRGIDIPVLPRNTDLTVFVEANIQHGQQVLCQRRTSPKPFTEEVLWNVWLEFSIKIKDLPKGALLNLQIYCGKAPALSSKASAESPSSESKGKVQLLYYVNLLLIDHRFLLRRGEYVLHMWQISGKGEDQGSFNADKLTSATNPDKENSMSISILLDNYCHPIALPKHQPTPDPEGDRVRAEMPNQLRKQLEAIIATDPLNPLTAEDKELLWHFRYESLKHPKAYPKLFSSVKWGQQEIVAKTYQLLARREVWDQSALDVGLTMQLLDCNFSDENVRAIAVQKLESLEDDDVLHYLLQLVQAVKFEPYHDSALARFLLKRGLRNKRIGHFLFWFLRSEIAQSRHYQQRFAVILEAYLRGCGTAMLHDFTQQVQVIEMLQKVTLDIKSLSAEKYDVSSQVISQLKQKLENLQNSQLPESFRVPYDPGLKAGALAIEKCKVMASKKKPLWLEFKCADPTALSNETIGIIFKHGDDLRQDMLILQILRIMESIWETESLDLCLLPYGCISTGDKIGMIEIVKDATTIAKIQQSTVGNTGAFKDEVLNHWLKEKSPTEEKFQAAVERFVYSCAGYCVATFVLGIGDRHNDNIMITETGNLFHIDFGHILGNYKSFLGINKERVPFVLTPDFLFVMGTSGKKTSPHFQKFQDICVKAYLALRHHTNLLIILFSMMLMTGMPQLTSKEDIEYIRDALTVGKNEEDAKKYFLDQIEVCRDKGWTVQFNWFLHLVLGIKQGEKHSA

| Compound | IC50 [µM] |
| --- | --- |
| Cc1nc(N)ncc1-c1ccnc(C(C)(C)C)n1 [Example 2-1, 2-tert-Butyl-4′-methyl-[4,5′]bipyrimidinyl-2′-ylamine] | 0.223 |
| Cc1nc(N)ncc1-c1ccc(Cl)c(S(=O)(=O)N(C)C)c1 [Example 1-15, 5-(2-Amino-4-methyl-pyrimidin-5-yl)-2-chloro-N2N-dimethyl-benzenesulfonamide] | 0.239 |
| Cc1nc(N)ncc1-c1ccc(Cl)c(NS(=O)(=O)c2ccccc2)c1 [Example 1-50, N-[5-(2-Amino-4-methyl-pyrimidin-5-yl)-2-chloro-phenyl]-benzenesulfonamide] | 0.05 |
| Cc1nc(N)ncc1-c1ccc(Cl)c(S(=O)(=O)Nc2ccccc2)c1 [Example 1-1, 5-(2-Amino-4-methyl-pyrimidin-5-yl)-2-chloro-N-phenyl-benzenesulfonamide] | 0.004 |
| Cc1nc(N)ncc1-c1ccc(Cl)c(S(=O)(=O)N2CC(O)C2)c1 [Example 1-30, 1-[5-(2-Amino-4-methyl-pyrimidin-5-yl)-2-chloro-benzenesulfonyl]-azetidin-3-ol] | 0.135 |

Now from value to compound:

| IC50 [µM] | Compound |
| --- | --- |
| 0.305 | Cc1nc(N)ncc1-c1ccc(Cl)c(S(=O)(=O)N[C@H]2CC[C@@H](NC(=O)OC(C)(C)C)CC2)c1 [Example 3-17, cis-{4-[5-(2-Amino-4-methyl-pyrimidin-5-yl)-2-chloro-benzenesulfonylamino]-cyclohexyl}-carbamic acid tert-butyl ester] |
| 0.108 | Cc1nc(N)ncc1-c1ccc(C(F)(F)F)c(S(=O)(=O)N[C@@H]2CCC[C@@H]2O)c1 [Example 3-53, 5-(2-Amino-4-methyl-pyrimidin-5-yl)-N-((1R,2S)-2-hydroxy-cyclopentyl)-2-trifluoromethyl-benzenesulfonamide] |
| 0.219 | Cc1nc(N)ncc1-c1ccc(Cl)c(S(=O)(=O)NC2CC2)c1 [Example 3-1, 5-(2-Amino-4-methyl-pyrimidin-5-yl)-2-chloro-N-cyclopropyl-benzenesulfonamide] |
| 0.016 | Cc1nc(N)ncc1-c1ccc(Cl)c(NS(=O)(=O)c2cccc(Cl)c2)c1 [Example 3-35, N-[5-(2-Amino-4-methyl-pyrimidin-5-yl)-2-chloro-phenyl]-3-chloro-benzene sulfonamide] |

Reference: patent US8263585B2, “Organic compounds” (Novartis AG, priority 2007, dated 2012)
